Several values for one entry are separate records, joined by “and”; a condition that tells them apart may be missing. Equal values may be shown once.
Assays:
[1] = Plasma pharmacokinetic parameters (LC-MS/MS); conditions: for AUC(0-t): AUClast; for AUC(0-t) / Cmax / Tmax / AUClast / CL/F / T1/2: total everolimus plasma; for half-life: T1/2, total everolimus plasma
Experimental: Pharmacokinetic evaluation was conducted as previously described[8] using a validated liquid chromatography with tandem mass spectrometry (LC-MS/MS) method.[16] […] CSF samples were intraoperatively collected.

[2] = Adverse events related to study treatment (CTCAE); type: in vivo, human; conditions: Dose Level 0: ribociclib 400mg + everolimus 2.5mg QD 5 days; CTCAE grade 1
Experimental: Eligibility was determined based on previous clinical records, panel DNA sequencing, and IHC of archival tissue from a previous surgery (Figure 1, Supplementary Figure S2A).

[3] = human, plasma, oral, 2.5 mg, mean
[4] = human, plasma, oral, 2.5 mg, median
[5] = human, plasma, oral, 5 mg, mean
[6] = human, plasma, oral, 5 mg, median
[7] = human, plasma, oral, 10 mg, mean
[8] = human, plasma, oral, 10 mg, median
[9] = human, plasma, oral, 50 mg, mean
[10] = human, plasma, oral, 50 mg, median
[11] = human, plasma, oral, 60 mg, mean
[12] = human, plasma, oral, 60 mg, median
[13] = human, plasma, oral, 70 mg, individual patients
[14] = human, plasma, oral, 70 mg, mean
[15] = human, plasma, oral, 70 mg, median
[16] = dose 2.5 mg, individual patients
[17] = dose 10 mg, individual patients
[18] = dose 50 mg, individual patients, listed as everolimus
[19] = dose 60 mg, individual patients
[20] = dose 70 mg, individual patients

## CO[C@H]1C[C@@H]2CC[C@@H](C)[C@@](O)(O2)C(=O)C(=O)N2CCCC[C@H]2C(=O)O[C@H]([C@H](C)C[C@@H]2CC[C@@H](OCCO)[C@H](OC)C2)CC(=O)[C@H](C)/C=C(\C)[C@@H](O)[C@@H](OC)C(=O)[C@H](C)C[C@H](C)/C=C/C=C/C=C/1C [Everolimus, everolimus]
[1]; [3]
  AUC(0-t): 0.31 µM·h
  half-life: 21.6 h
[1]; [4]
  AUC(0-t): 0.23 µM·h
  half-life: 17.2 h
[1]; human, plasma, oral, 2.5 mg, Cmax, mean
  Cmax: 33.7 nM
[1]; human, plasma, oral, 2.5 mg, Tmax, mean
  Tmax: 1.86 h
[1]; human, plasma, oral, 5 mg, individual patients
  AUC(0-t): 0.55 µM·h
[1]; [5]
  AUC(0-t): 0.43 µM·h
  half-life: 19.9 h
[1]; [6]
  AUC(0-t): 0.5 µM·h
  half-life: 18.8 h
[1]; human, plasma, oral, 5 mg, Cmax, mean
  Cmax: 34.1 nM
[1]; human, plasma, oral, 5 mg, Tmax, mean
  Tmax: 2.69 h
[1]; human, plasma, oral, 5 mg, Tmax, median
  Tmax: 2.03 h
[1]; [7]
  AUC(0-t): 0.9 µM·h
  half-life: 21.8 h
[1]; [8]
  AUC(0-t): 0.82 µM·h
  half-life: 21.8 h
[1]; human, plasma, oral, 10 mg, Cmax, individual patients
  Cmax: 80 nM
[1]; human, plasma, oral, 10 mg, individual patients
  half-life: 22.1 h
[1]; human, plasma, oral, 10 mg, Tmax, mean
  Tmax: 3.23 h
[1]; human, plasma, oral, 10 mg, Tmax, median
  Tmax: 3.92 h
[1]; human, plasma, oral, 50 mg, individual patients
  AUC(0-t): 1.35 µM·h
[1]; [9]
  AUC(0-t): 1.59 µM·h
  half-life: 29.3 h
[1]; [10]
  AUC(0-t): 1.61 µM·h
  half-life: 21.3 h
[1]; human, plasma, oral, 50 mg, Cmax, individual patients
  Cmax: 110 nM
[1]; human, plasma, oral, 50 mg, Cmax, mean
  Cmax: 140 nM
[1]; human, plasma, oral, 50 mg, Cmax, median
  Cmax: 130 nM
[1]; human, plasma, oral, 50 mg, Tmax, mean
  Tmax: 1.31 h
[1]; human, plasma, oral, 50 mg, Tmax, median
  Tmax: 1.12 h
[1]; human, plasma, oral, 60 mg, individual patients
  AUC(0-t): 1.93 µM·h
[1]; [11]
  AUC(0-t): 1.88 µM·h
  half-life: 19.7 h
[1]; [12]
  AUC(0-t): 1.88 µM·h
  half-life: 19.7 h
[1]; human, plasma, oral, 60 mg, Cmax, individual patients
  Cmax: 190 nM
[1]; human, plasma, oral, 60 mg, Cmax, mean
  Cmax: 190 nM
[1]; human, plasma, oral, 60 mg, Cmax, median
  Cmax: 190 nM
[1]; [13]
  AUC(0-t): 1.24 µM·h
  half-life: 18.7 h
[1]; [14]
  AUC(0-t): 1.29 µM·h
  half-life: 19.4 h
[1]; [15]
  AUC(0-t): 1.27 µM·h
  half-life: 19.4 h
[1]; human, plasma, oral, 70 mg, Cmax, individual patients
  Cmax: 120 nM
[1]; human, plasma, oral, 70 mg, Cmax, mean
  Cmax: 120 nM
[1]; human, plasma, oral, 70 mg, Cmax, median
  Cmax: 120 nM
[1]; human, plasma, oral, 70 mg, Tmax, mean
  Tmax: 4.25 h
[1]; human, plasma, oral, 70 mg, Tmax, median
  Tmax: 1.93 h
[1]; [16]
  AUClast: 0.41 µM·h and 0.68 µM·h and 0.46 µM·h and 0.32 µM·h and 0.19 µM·h and 0.16 µM·h and 0.14 µM·h
  CL/F: 6.33 L/h and 3.85 L/h and 5.73 L/h and 8.25 L/h and 11.50 L/h and 13.68 L/h and 16.29 L/h and 18.14 L/h and 15.94 L/h
  Tmax: 0.93 h and 1.00 h and 1.88 h and 2.05 h and 1.05 h and 3.97 h and 1.92 h and 1.95 h and 2.02 h
[1]; dose 2.5 mg, mean
  CL/F: 11.08 L/h
[1]; dose 2.5 mg, median
  CL/F: 11.50 L/h
  Cmax: 30 nM
  Tmax: 1.92 h
[1]; dose 5 mg, individual patients
  AUClast: 0.22 µM·h
  CL/F: 9.45 L/h and 23.36 L/h and 10.39 L/h
  Cmax: 45.2 nM and 21.1 nM
  T1/2: 28.35 h and 18.84 h and 12.56 h
  Tmax: 1.95 h and 4.10 h
[1]; dose 5 mg, mean
  CL/F: 14.40 L/h
[1]; dose 5 mg, median
  CL/F: 10.39 L/h
  Cmax: 36.2 nM
[1]; [17]
  AUClast: 0.49 µM·h and 0.63 µM·h and 1.02 µM·h and 1.48 µM·h
  CL/F: 21.35 L/h and 16.51 L/h and 10.28 L/h and 7.07 L/h
  Cmax: 120 nM
  T1/2: 21.52 h
  Tmax: 4.03 h and 1.05 h and 3.83 h and 4.00 h
[1]; dose 10 mg, mean
  CL/F: 13.80 L/h
  Cmax: 90 nM
[1]; dose 10 mg, median
  CL/F: 13.40 L/h
  Cmax: 84.6 nM
[1]; dose 50 mg, individual patients
  Cmax: 130 nM
[1]; [18]
  AUClast: 1.87 µM·h and 1.42 µM·h and 1.72 µM·h
  CL/F: 21.38 L/h and 14.80 L/h and 15.39 L/h and 21.73 L/h and 8.55 L/h
  Cmax: 130 nM and 160 nM and 170 nM
  Tmax: 1.87 h and 1.78 h and 0.83 h and 0.95 h
[1]; dose 50 mg, mean
  CL/F: 16.37 L/h
[1]; dose 50 mg, median
  CL/F: 15.39 L/h
[1]; [19]
  AUClast: 1.83 µM·h
  CL/F: 23.69 L/h and 16.85 L/h
  T1/2: 12.25 h and 27.10 h
  Tmax: 1.00 h
[1]; dose 60 mg, mean
  CL/F: 20.27 L/h
  Tmax: 1.00 h
[1]; dose 60 mg, median
  CL/F: 20.27 L/h
  Tmax: 1.00 h
[1]; [20]
  AUClast: 1.36 µM·h
  CL/F: 35.41 L/h and 33.84 L/h
  Cmax: 90 nM
  T1/2: 20.18 h
  Tmax: 9.75 h and 1.07 h
[1]; dose 70 mg, mean
  CL/F: 34.62 L/h
[1]; dose 70 mg, median
  CL/F: 34.62 L/h
[2]
  Stomatitis, No. Patients Affected: 1
